Source: US20250332300A1 (priority 2024, published 2025)
Structures can show the parent of a compound that is named as a salt. Where two headings read alike, the source gives them in different places. Starred links: 1 amine or outer side, 2 acyl side, 3 side chain; linkers in the order of their positions; H or OH if unused. Positions of bridges follow the written chain, without caps; N, C: chain ends. Non-standard residues stand in square brackets, D forms with d. Residues, ends and D or L forms follow the SMILES beside them. Nle(4-yne,6-yl) = O=C([C@H](CC#CC[*:3])N[*:1])[*:2]; Trp(5-OH) = N[C@@H](Cc1c[nH]c2ccc(O)cc12)C(=O)O; NMePhe(4-F) = CN[C@@H](Cc1ccc(F)cc1)C(=O)O; NMehPhe = CN[C@@H](CCc1ccccc1)C(=O)O; X3 = NC[C@H](CCC(=O)[*:2])C(=O)[*:1]; Aad = N[C@@H](CCCC(=O)O)C(=O)O; Gly(cPr) = N[C@H](C(=O)O)C1CC1; NMeK = CN[C@@H](CCCCN)C(=O)O; NMeDap = CN[C@@H](CN)C(=O)O; NMeC = CN[C@@H](CS)C(=O)O; NMeS = CN[C@@H](CO)C(=O)O

Legend:
Format in all cases: binding
human HER2 (23-652) [1] = target: T1, human HER2 (23-652) (Homo sapiens, UniProt P04626); test: Surface plasmon resonance (SPR) for assessment of peptide affinity, human HER2; design: towards human HER2 (23-652) and mouse HER2 (23-653); made in house
How it was run: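 Binding kinetics fitted from sensorgrams with 280 s peptide association then 3000 s dissociation (30 uL/min), using HER2 (23-652) either directly immobilized (SA/CM5) or anti-Fc-captured; 3 M magnesium chloride used for regeneration.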

human HER2 (23-652) [2] = target: T1, human HER2 (23-652); test: TR-FRET competition assay for peptide potency, human HER2; design: towards human HER2 (23-652) and mouse HER2 (23-653); made in house; host or cells: mammalian cells
mouse HER2 (23-653) [3] = target: T2, mouse HER2 (23-653) (Mus musculus, UniProt P70424); test: Surface plasmon resonance (SPR) for assessment of peptide affinity, mouse HER2; design: mouse HER2 (23-653) using a Cy5 labeled peptide as a probe; made in house
Description: Each protein was immobilized either onto a SA sensorchip (Cytiva, BR-1005-31) or CM5 sensorchip (Cytiva, BR-1005-30) to a density of 800-2000 RU.

mouse HER2 (23-653) [4] = target: T2, mouse HER2 (23-653); test: TR-FRET competition assay for peptide potency, mouse HER2; design: mouse HER2 (23-653) using a Cy5 labeled peptide as a probe; made in house; host or cells: mammalian cells; conditions: 0.1 nM mouse HER2, 24 h incubation
[5] = huHER2 TR-FRET IC50, TR-FRET competition with Cy5 labeled peptide probe, 0.1 nM human HER2, 24 h incubation
[6] = SPR, mouse HER2 extracellular domain, 25° C., 1:1 binding model, read-out: moHER2-SPR-ONC KD
[7] = TR-FRET competition with Cy5 labeled peptide probe, read-out: moHER2 TR-FRET IC50
[8] = moHER2 TR-FRET IC50, TR-FRET competition with Cy5 labeled peptide probe

Row | Kd (human HER2 (23-652) [1]; SPR, human HER2 extracellular domain, 25° C., 1:1 binding model, read-out: huHER2-SPR-ONC KD) | IC50 (human HER2 (23-652) [2]; read-out: huHER2 TR-FRET IC50) | SMILES | Kd (human HER2 (23-652) [1]) | IC50 (human HER2 (23-652) [2]; [5]) | Kd (mouse HER2 (23-653) [3]; [6]) | IC50 (mouse HER2 (23-653) [4]; [7]) | Kd (mouse HER2 (23-653) [3]) | IC50 (mouse HER2 (23-653) [4]; [8]) | IC50 (human HER2 (23-652) [2]; huHER2 TR-FRET IC50, recalculated value achieved after further repetition, value in parentheses (**): recalculated after further repetition)
1 |  |  | CN1C(=O)[C@H](CO)NC(=O)[C@H](Cc2ccc(O)cc2)NC(=O)[C@@H](N)CCCC(=O)NC[C@@H](C(=O)N(C)[C@@H](Cc2ccc(F)cc2)C(N)=O)N(C)C(=O)[C@H](C2CC2)NC(=O)[C@H](Cc2c[nH]c3ccccc23)NC(=O)[C@H](Cc2c[nH]c3ccc(O)cc23)NC(=O)[C@H](CO)N(C)C(=O)[C@@H]1CCc1ccccc1 [Example A36, (3S,6S,9S,12S,15S,18S,21S,24S,27S)-9-((1H-indol-3-yl)methyl)-27-amino-N-((S)-1-amino-3-(4-fluorophenyl)-1-oxopropan-2-yl)-6-cyclopropyl-12-((5-hydroxy-1H-indol-3-yl)methyl)-24-(4-hydroxybenzyl)-15,21-bis(hydroxymethyl)-N,4,16,19-tetramethyl-5,8,11,14,17,20,23,26,31-nonaoxo-18-phenethyl-1,4,7,10,13,16,19,22,25-nonaazacyclohentriacontane-3-carboxamide TFA salt] (H-[Aad]YS[NMehPhe][NMeS][Trp(5-OH)]W[Gly(cPr)][NMeDap][NMePhe(4-F)]-NH2; lactam 1-9) | 38 nM | 52 nM | 34 nM | 102 nM |  |  | 
2 |  |  | CN1C(=O)[C@H](CO)NC(=O)[C@H](Cc2ccc(O)cc2)NC(=O)[C@@H](N)CC(=O)NC[C@@H](C(=O)N(C)[C@@H](Cc2ccc(F)cc2)C(N)=O)N(C)C(=O)[C@H](C2CC2)NC(=O)[C@H](Cc2c[nH]c3ccccc23)NC(=O)[C@H](Cc2c[nH]c3ccc(O)cc23)NC(=O)[C@H](CO)N(C)C(=O)[C@@H]1CCc1ccccc1 [Example A37, (3S,6S,9S,12S,15S,18S,21S,24S,27S)-9-((1H-indol-3-yl)methyl)-27-amino-N-((S)-1-amino-3-(4-fluorophenyl)-1-oxopropan-2-yl)-6-cyclopropyl-12-((5-hydroxy-1H-indol-3-yl)methyl)-24-(4-hydroxybenzyl)-15,21-bis(hydroxymethyl)-N,4,16,19-tetramethyl-5,8,11,14,17,20,23,26,29-nonaoxo-18-phenethyl-1,4,7,10,13,16,19,22,25-nonaazacyclononacosane-3-carboxamide TFA salt] (H-DYS[NMehPhe][NMeS][Trp(5-OH)]W[Gly(cPr)][NMeDap][NMePhe(4-F)]-NH2; lactam 1-9) | 452 nM | 810 nM |  |  | 213 nM | > 1000 nM | 
3 |  |  | CN1C(=O)[C@H](Cc2ccc(O)cc2)NC(=O)[C@@H](N)CCC(=O)NC[C@@H](C(=O)N(C)[C@@H](Cc2ccc(F)cc2)C(N)=O)N(C)C(=O)[C@H](C2CC2)NC(=O)[C@H](Cc2c[nH]c3ccccc23)NC(=O)[C@H](Cc2c[nH]c3ccc(O)cc23)NC(=O)[C@H](CO)N(C)C(=O)[C@H](CCc2ccccc2)N(C)C(=O)[C@@H]1CO [Example A38, (3S,6S,9S,12S,15S,18S,21S,24S,27S)-9-((1H-indol-3-yl)methyl)-27-amino-N-((S)-1-amino-3-(4-fluorophenyl)-1-oxopropan-2-yl)-6-cyclopropyl-12-((5-hydroxy-1H-indol-3-yl)methyl)-24-(4-hydroxybenzyl)-15,21-bis(hydroxymethyl)-N,4,16,19,22-pentamethyl-5,8,11,14,17,20,23,26,30-nonaoxo-18-phenethyl-1,4,7,10,13,16,19,22,25-nonaazacyclotriacontane-3-carboxamide TFA salt] (H-EY[NMeS][NMehPhe][NMeS][Trp(5-OH)]W[Gly(cPr)][NMeDap][NMePhe(4-F)]-NH2; lactam 1-9) | 46 nM | 93 nM |  |  | 67 nM | 206 nM | 
4 |  |  | CN1C(=O)[C@H](CO)NC(=O)[C@H](Cc2ccc(O)cc2)NC(=O)[C@H](CN)CCC(=O)NC[C@@H](C(=O)N(C)[C@@H](Cc2ccc(F)cc2)C(N)=O)N(C)C(=O)[C@H](C2CC2)NC(=O)[C@H](Cc2c[nH]c3ccccc23)NC(=O)[C@H](Cc2c[nH]c3ccc(O)cc23)NC(=O)[C@H](CO)N(C)C(=O)[C@@H]1CCc1ccccc1 [Example A39, (3S,6S,9S,12S,15S,18S,21S,24S,27S)-9-((1H-indol-3-yl)methyl)-N-((S)-1-amino-3-(4-fluorophenyl)-1-oxopropan-2-yl)-27-(aminomethyl)-6-cyclopropyl-12-((5-hydroxy-1H-indol-3-yl)methyl)-24-(4-hydroxybenzyl)-15,21-bis(hydroxymethyl)-N,4,16,19-tetramethyl-5,8,11,14,17,20,23,26,30-nonaoxo-18-phenethyl-1,4,7,10,13,16,19,22,25-nonaazacyclotriacontane-3-carboxamide TFA salt] (YS[NMehPhe][NMeS][Trp(5-OH)]W[Gly(cPr)][NMeDap][NMePhe(4-F)]-NH2; linker N-8 via X3) | 148 nM | 129 nM |  |  | 162 nM | 436 nM | 
5 |  |  | CC(=O)NCCCC[C@H]1C(=O)N[C@@H](Cc2c[nH]c3ccc(O)cc23)C(=O)N[C@@H](Cc2c[nH]c3ccccc23)C(=O)N[C@@H](C2CC2)C(=O)N(C)[C@H](C(=O)N(C)[C@@H](Cc2ccc(F)cc2)C(=O)N[C@@H](CCCCN)C(N)=O)CNC(=O)CCC[C@H](NC(C)=O)C(=O)N[C@@H](Cc2ccc(O)cc2)C(=O)N[C@@H](CO)C(=O)N(C)[C@@H](CCc2ccccc2)C(=O)N1C [Example A40, TFA salt] | < 0.1 nM | < 0.1 nM | < 0.1 nM | 0.2 nM |  |  | 
6 | > 6000 nM | > 900 nM | CC(=O)NCCCC[C@H]1C(=O)N[C@@H](Cc2c[nH]c3ccc(O)cc23)C(=O)N[C@@H](C)C(=O)N[C@@H](C2CC2)C(=O)N(C)[C@H](C(=O)N(C)[C@@H](Cc2ccc(F)cc2)C(=O)N[C@@H](CCCCN)C(N)=O)CNC(=O)CCC[C@H](NC(C)=O)C(=O)N[C@@H](Cc2ccc(O)cc2)C(=O)N[C@@H](CO)C(=O)N(C)[C@@H](CCc2ccccc2)C(=O)N1C [Example A45, (3S,6S,9S,12S,15S,18S,21S,24S,27S)-27-acetamido-15-(4-acetamidobutyl)-6-cyclopropyl-N-((S)-1-(((S)-1,6-diamino-1-oxohexan-2-y1)amino)-3-(4-fluorophenyl)-1-oxopropan-2-y1)-12-((5-hydroxy-1H-indol-3-yl)methyl)-24-(4-hydroxybenzyl)-21-(hydroxymethyl)-N,4,9,16,19-pentamethyl-5,8,11,14,17,20,23,26,31-nonaoxo-18-phenethyl-1,4,7,10,13,16,19,22,25-nonaazacyclohentriacontane-3-carboxamide TFA salt] (Ac-[Aad]YS[NMehPhe][NMeK](Ac)[Trp(5-OH)]A[Gly(cPr)][NMeDap][NMePhe(4-F)]K-NH2; lactam 1-9) |  |  | > 6000 nM | > 1000 nM |  |  | 
7 |  |  | CN1C(=O)[C@H](CO)NC(=O)[C@H](Cc2ccc(O)cc2)NC(=O)[C@@H](N)CC#CCSC[C@@H](C(=O)N(C)[C@@H](Cc2ccc(F)cc2)C(N)=O)N(C)C(=O)[C@H](C2CC2)NC(=O)[C@H](Cc2c[nH]c3ccccc23)NC(=O)[C@H](Cc2c[nH]c3ccc(O)cc23)NC(=O)[C@H](CO)N(C)C(=O)[C@@H]1CCc1ccccc1 [Example A52, (3R,6S,9S,12S,15S,18S,21S,24S,27S)-9-((1H-indol-3-yl)methyl)-27-amino-N—((S)-1-amino-3-(4-fluorophenyl)-1-oxopropan-2-yl)-6-cyclopropyl-12-((5-hydroxy-1H-indol-3-yl)methyl)-24-(4-hydroxybenzyl)-15,21-bis(hydroxymethyl)-N,4,16,19-tetramethyl-5,8,11,14,17,20,23,26-octaoxo-18-phenethyl-1-thia-4,7,10,13,16,19,22,25-octaazacyclohentriacont-29-yne-3-carboxamide TFA salt] (H-[Nle(4-yne,6-yl)]YS[NMehPhe][NMeS][Trp(5-OH)]W[Gly(cPr)][NMeC][NMePhe(4-F)]-NH2; thioether 1-9) | 997 nM | 427 nM | 570 nM | > 1000 nM |  |  | 567 nM
